Assay results as given in ChEMBL document CHEMBL1132959, “Design of potent dicyclic (1-5/4-10) gonadotropin releasing hormone (GnRH) antagonists” (J Med Chem, 2000).
One block for each molecule: values may come before it.

Legend:
[1] = biological target: T1, Gonadotropin-releasing hormone receptor (Rattus norvegicus, UniProt P30969); test: Affinity for rat gonadotrophin releasing hormone (GnRH) receptor using HEK293 cells transfected with rat Gonadotropin-releasing hormone receptor; format: cell-based; settings: hek293
T1 sequence (P30969 whole entry): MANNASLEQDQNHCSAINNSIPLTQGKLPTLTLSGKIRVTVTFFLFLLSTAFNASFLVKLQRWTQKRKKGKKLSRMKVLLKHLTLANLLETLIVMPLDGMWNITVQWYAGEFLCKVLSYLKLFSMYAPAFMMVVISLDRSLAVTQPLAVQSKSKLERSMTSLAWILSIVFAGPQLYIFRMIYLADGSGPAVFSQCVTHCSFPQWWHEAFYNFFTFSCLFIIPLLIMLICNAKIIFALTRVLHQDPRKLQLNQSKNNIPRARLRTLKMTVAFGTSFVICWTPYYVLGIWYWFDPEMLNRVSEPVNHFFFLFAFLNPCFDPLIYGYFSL

Rattus norvegicus [2] = species: Rattus norvegicus; test: Antiovulatory potency at 500 ug/rat expressed as rats ovulating by total no. of rats (5/7); format: functional
Rattus norvegicus [3] = species: Rattus norvegicus; test: Antiovulatory potency at 250 ug/rat expressed as rats ovulating by total no. of rats (0/5); format: functional
Rattus norvegicus [4] = species: Rattus norvegicus; test: Antiovulatory potency at 100 ug/rat expressed as rats ovulating by total no. of rats (5/5); format: functional
Rattus norvegicus [5] = species: Rattus norvegicus; test: Antiovulatory potency at 25 ug/rat expressed as rats ovulating by total no. of rats (3/7); format: functional
Rattus norvegicus [6] = species: Rattus norvegicus; test: Antiovulatory potency at 50 ug/rat expressed as rats ovulating by total no. of rats (0/5); format: functional
Rattus norvegicus [7] = species: Rattus norvegicus; test: Antiovulatory potency at 10 ug/rat expressed as rats ovulating by total no. of rats (5/5); format: functional
Rattus norvegicus [8] = species: Rattus norvegicus; test: Antiovulatory potency at 2.5 ug/rat expressed as rats ovulating by total no. of rats (4/16); format: functional
Rattus norvegicus [9] = species: Rattus norvegicus; test: Antiovulatory potency at 5 ug/rat expressed as rats ovulating by total no. of rats (0/5); format: functional
Rattus norvegicus [10] = species: Rattus norvegicus; test: Antiovulatory potency at 1 ug/rat expressed as rats ovulating by total no. of rats (5/7); format: functional

Ki [1]: 13 nM
SMILES: CC(=O)N[C@H](Cc1ccc2ccccc2c1)C(=O)N[C@H]1CSSC[C@@H]2NC(=O)[C@H](Cc3ccc(O)cc3)NC(=O)[C@H](CC(=O)NC[C@@H](C(N)=O)NC(=O)[C@@H]3CCCN3C(=O)[C@H](CCCN=C(N)N)NC(=O)[C@H](CC(C)C)NC2=O)NC(=O)[C@@H](Cc2c[nH]c3ccccc23)NC1=O
Ovulating rats (Rattus norvegicus [2]): 5

SMILES: CC(=O)N[C@H](Cc1ccc2ccccc2c1)C(=O)N[C@H](Cc1ccc(Cl)cc1)C(=O)N[C@@H]1CC(=O)NCCC[C@@H](C(=O)N2CCC[C@H]2C(=O)N[C@H](C)C(N)=O)NC(=O)[C@H](CC(C)C)NC(=O)[C@@H](Cc2ccc3ccccc3c2)NC(=O)[C@H](CCCN=C(N)N)NC(=O)[C@H](C)NC1=O
Ovulating rats (Rattus norvegicus [3]): 0
Ovulating rats (Rattus norvegicus [4]): 5

SMILES: CC(=O)N[C@H](Cc1ccc2ccccc2c1)C(=O)N[C@H](Cc1ccc(Cl)cc1)C(=O)N[C@@H]1CC(=O)NCCCC[C@@H](C(=O)N2CCC[C@H]2C(=O)N[C@H](C)C(N)=O)NC(=O)[C@H](CC(C)C)NC(=O)[C@@H](Cc2ccc3ccccc3c2)NC(=O)[C@H](CCCN=C(N)N)NC(=O)[C@H](C)NC1=O
Ovulating rats (Rattus norvegicus [5]): 3
Ovulating rats (Rattus norvegicus [6]): 0
Ovulating rats (Rattus norvegicus [7]): 5

SMILES: CC(=O)N[C@H]1CC(=O)NCC(=O)NCC[C@@H]2NC(=O)[C@H](CC(=O)NC[C@@H](C(N)=O)NC(=O)[C@@H]3CCCN3C(=O)[C@H](CCCN=C(N)N)NC(=O)[C@H](CC(C)C)NC(=O)[C@@H](Cc3ccc4ccccc4c3)NC2=O)NC(=O)[C@@H](Cc2c[nH]c3ccccc23)NC(=O)[C@@H](Cc2ccc(Cl)cc2)NC1=O
Ovulating rats (Rattus norvegicus [8]): 4
Ovulating rats (Rattus norvegicus [9]): 0
Ovulating rats (Rattus norvegicus [10]): 5
